The IC50 is the concentration that gives 50% inhibition. A low value points to higher potency.

For this assay, the target named is human MGL from HeLa cells (Homo sapiens (Human), UniProt Q99685). Kind of assay: MGL in vitro activity assay ([glycerol-1,3-3H]-oleoyl glycerol hydrolysis, activated carbon filtration). Particulars: 300 nM [Glycerol-1,3-3H]-oleoyl glycerol, one hour. Format: biochemical. A digest of the protocol: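 Activity measured as tritium in the flow-through after activated carbon filtration of a 1 h reaction containing 300 nM 3H-oleoyl glycerol, compound and HeLa-derived human MGL. Compounds screened at 10 μM; IC50 series start at an empirically chosen highest concentration.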
Chain of human MGL from HeLa cells (Q99685 whole entry): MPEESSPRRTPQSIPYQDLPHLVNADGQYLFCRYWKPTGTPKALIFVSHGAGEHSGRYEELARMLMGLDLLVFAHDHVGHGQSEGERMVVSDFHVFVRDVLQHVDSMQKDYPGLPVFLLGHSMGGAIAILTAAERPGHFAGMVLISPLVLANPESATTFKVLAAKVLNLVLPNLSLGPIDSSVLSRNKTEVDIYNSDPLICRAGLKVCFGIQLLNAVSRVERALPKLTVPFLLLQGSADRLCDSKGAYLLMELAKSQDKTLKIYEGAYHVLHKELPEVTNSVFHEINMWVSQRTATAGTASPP
For `Cc1cc(C2CCC3(C2)CN(C(=O)[C@H]2C[C@@](C)(O)C2)C3)ccc1Cl` (mixture of isomers) [Example 68, (rac)-(6-(4-Chloro-3-methylphenyl)-2-azaspiro[3.4]octan-2-yl)((1s,3s)-3-hydroxy-3-methylcyclobutyl)methanone], the IC50 was 12 nM. This counts as double-digit nanomolar.

With `Cc1ccc(OC2CC3(C2)CN(C(=O)[C@H]2C[C@@](C)(O)C2)C3)cc1C(F)(F)F` [Example 248, ((1s,3s)-3-Hydroxy-3-methylcyclobutyl)(6-(4-methyl-3-(trifluoromethyl)phenoxy)-2-azaspiro[3.3]heptan-2-yl)methanone], the IC50 turned out to be 114 nM.

On to `Cc1cc2ccc(OC3CCC4(CC3)CN(C(=O)[C@H]3C[C@@](C)(O)C3)C4)nc2n1C` [Example 472, (7-((1,2-Dimethyl-1H-pyrrolo[2,3-b]pyridin-6-yl)oxy)-2-azaspiro[3.5]nonan-2-yl)((1s,3s)-3-hydroxy-3-methylcyclobutyl)methanone], for which the IC50 is 26 nM.

`CC(C)(C)c1ccnc(CC2CC3(C2)CN(C(=O)[C@H]2C[C@@](C)(O)C2)C3)c1` [Example 190, (6-((4-(tert-Butyl)pyridin-2-yl)methyl)-2-azaspiro[3.3]heptan-2-yl)((1s,3s)-3-hydroxy-3-methylcyclobutyl)methanone]: it took 73 nM to reach half-maximal inhibition (IC50). This IC50 lies about 2.8-fold higher than the previous one.

`C[C@]1(O)C[C@@H](C(=O)N2CC3(CC(Cc4ccccc4C(F)(F)F)C3)C2)C1` [Example 199, ((1s,3s)-3-Hydroxy-3-methylcyclobutyl)(6-(2-(trifluoromethyl)benzyl)-2-azaspiro[3.3]heptan-2-yl)methanone] displayed an IC50 of 4.1 nM.

With `Cc1nc([C@H](C)C2CC3(C2)CN(C(=O)[C@H]2C[C@@](C)(O)C2)C3)ccc1C(F)(F)F` (stereo in doubt) [Example 312, ((1s,3*S)-3-Hydroxy-3-methylcyclobutyl)(6-((*R)-1-(6-methyl-5-(trifluoromethyl)pyridin-2-yl)ethyl)-2-azaspiro[3.3]heptan-2-yl)methanone], the midpoint of inhibition, the IC50, lay at 5.4 nM.

Take `CC(F)(F)c1ccc(C2CCC3(C2)CN(C(=O)[C@H]2C[C@@](C)(O)C2)C3)cc1` (mixture of isomers) [Example 320, (rac)-(6-(4-(1,1-Difluoroethyl)phenyl)-2-azaspiro[3.4]octan-2-yl)((1s,3s)-3-hydroxy-3-methylcyclobutyl)methanone]: the IC50 was found to be 18 nM.

`COc1ccc(CC2CC3(C2)CN(C(=O)[C@H]2C[C@@](C)(O)C2)C3)cc1` [Example 192, ((1s,3s)-3-Hydroxy-3-methylcyclobutyl)(6-(4-methoxybenzyl)-2-azaspiro[3.3]heptan-2-yl)methanone] registered an IC50 of 22 nM. This IC50 and that of the molecule before are within 1.5-fold of each other.

`C[C@]1(O)C[C@@H](C(=O)N2CC3(CCC(Oc4ccc(C5CC5)cc4)CC3)C2)C1` [Example 261, (7-(4-Cyclopropylphenoxy)-2-azaspiro[3.5]nonan-2-yl)((1s,3s)-3-hydroxy-3-methylcyclobutyl)methanone] gave an IC50 of 7.2 nM.

For `CC(C)(C)c1cccc(OC2CCC3(CC2)CN(C(=O)[C@H]2C[C@@](C)(O)C2)C3)c1` [Example 257, (7-(3-(tert-Butyl)phenoxy)-2-azaspiro[3.5]nonan-2-yl)((1s,3s)-3-hydroxy-3-methylcyclobutyl)methanone], 8.1 nM corresponded to half-maximal inhibition (IC50).

Consider `Cc1ccc(C2CCC3(C2)CN(C(=O)[C@H]2C[C@@](C)(O)C2)C3)cc1C(F)(F)F` (mixture of isomers) [Example 65, (rac)-((1s,3s)-3-Hydroxy-3-methylcyclobutyl)(6-(4-methyl-3-(trifluoromethyl)phenyl)-2-azaspiro[3.4]octan-2-yl)methanone], for which half-maximal inhibition (IC50) was put at 11 nM. The IC50 values of the last two molecules are within 1.5-fold of each other.

`Cc1ccc(F)c(OC2CCC3(CC2)CN(C(=O)[C@H]2C[C@@](C)(O)C2)C3)n1` [Example 431, (7-((3-Fluoro-6-methylpyridin-2-yl)oxy)-2-azaspiro[3.5]nonan-2-yl)((1s,3s)-3-hydroxy-3-methylcyclobutyl)methanone] had a concentration for half-maximal inhibition (IC50) of 97 nM.

In turn, `Cc1cc2ccn(C)c2nc1OC1CCC2(CC1)CN(C(=O)[C@H]1C[C@@](C)(O)C1)C2` [Example 473, (7-((1,5-Dimethyl-1H-pyrrolo[2,3-b]pyridin-6-yl)oxy)-2-azaspiro[3.5]nonan-2-yl)((1s,3s)-3-hydroxy-3-methylcyclobutyl)methanone] yielded an IC50 of 1.2 nM.

For `Cc1c(OC2CCC3(C2)CN(C(=O)[C@H]2C[C@@](C)(O)C2)C3)cccc1C(F)(F)F` (mixture of isomers) [Example 253, (rac)-((1s,3s)-3-Hydroxy-3-methylcyclobutyl)(6-(2-methyl-3-(trifluoromethyl)phenoxy)-2-azaspiro[3.4]octan-2-yl)methanone], the IC50 turned out to be 26 nM.

Regarding `Cc1ccc(C2CCC3(C2)CN(C(=O)[C@H]2C[C@@](C)(O)C2)C3)cc1OC(F)(F)F` (mixture of isomers) [Example 107, (rac)-((1s,3s)-3-Hydroxy-3-methylcyclobutyl)(6-(4-methyl-3-(trifluoromethoxy)phenyl)-2-azaspiro[3.4]octan-2-yl)methanone], it took 7.4 nM to reach half-maximal inhibition (IC50). Compared with the last molecule, the IC50 is about 3.5-fold lower.

Turning to `COc1cc(C2CCC3(CC2)CN(C(=O)[C@H]2C[C@@](C)(O)C2)C3)ccc1C1CC1` [Example 140, (7-(4-Cyclopropyl-3-methoxyphenyl)-2-azaspiro[3.5]nonan-2-yl)((1s,3s)-3-hydroxy-3-methylcyclobutyl)methanone], the midpoint of inhibition, the IC50, lay at 33 nM.

In the case of `Cc1cc(CC2CC3(C2)CN(C(=O)[C@H]2C[C@@](C)(O)C2)C3)ccc1C1CC1` [Example 202, (6-(4-Cyclopropyl-3-methylbenzyl)-2-azaspiro[3.3]heptan-2-yl)((1s,3s)-3-hydroxy-3-methylcyclobutyl)methanone], the IC50 was 0.6 nM.

The molecule `COc1ccc(C)c(C2CCC3(CC2)CN(C(=O)[C@H]2C[C@@](C)(O)C2)C3)c1` [Example 363, ((1s,3s)-3-Hydroxy-3-methylcyclobutyl)(7-(5-methoxy-2-methylphenyl)-2-azaspiro[3.5]nonan-2-yl)methanone] registered an IC50 of 164 nM.

In turn, `Cc1cc(C2CCC3(C2)CN(C(=O)[C@H]2C[C@@](C)(O)C2)C3)ccc1C(F)F` (mixture of isomers) [Example 12, (rac)-(6-(4-(Difluoromethyl)-3-methylphenyl)-2-azaspiro[3.4]octan-2-yl)((1s,3s)-3-hydroxy-3-methylcyclobutyl)methanone] gave an IC50 of 25 nM.

As to `C[C@]1(O)C[C@@H](C(=O)N2CC3(CCC(c4ncn5ccccc45)C3)C2)C1` (mixture of isomers) [Example 329, (rac)-((1s,3s)-3-Hydroxy-3-methylcyclobutyl)(6-(imidazo[1,5-a]pyridin-1-yl)-2-azaspiro[3.4]octan-2-yl)methanone], the IC50 was found to be 683 nM.

Molecule `C[C@@H](c1ccccc1)[C@@H]1CCC2(C1)CN(C(=O)[C@H]1C[C@@](C)(O)C1)C2` (single isomer, unassigned) [Example 337, ((1s,3*S)-3-Hydroxy-3-methylcyclobutyl)((*R)-6-((*R)-1-phenylethyl)-2-azaspiro[3.4]octan-2-yl)methanone] registered an IC50 of 149 nM.

Molecule `C[C@]1(O)C[C@@H](C(=O)N2CC3(CC(Cc4ccccc4OC(F)(F)F)C3)C2)C1` [Example 196, ((1s,3s)-3-Hydroxy-3-methylcyclobutyl)(6-(2-(trifluoromethoxy)benzyl)-2-azaspiro[3.3]heptan-2-yl)methanone] gave an IC50 of 2.8 nM.

Take `Cc1cc([C@@H]2CCC3(C2)CN(C(=O)[C@H]2C[C@@](C)(O)C2)C3)ccc1Cl` [Example 69, ((R)-6-(4-Chloro-3-methylphenyl)-2-azaspiro[3.4]octan-2-yl)((1s,3S)-3-hydroxy-3-methylcyclobutyl)methanone]: 15 nM corresponded to half-maximal inhibition (IC50).

`CC(C)(C)c1cccc(CC2CC3(C2)CN(C(=O)[C@H]2C[C@@](C)(O)C2)C3)n1` [Example 233, (6-((6-(tert-Butyl)pyridin-2-yl)methyl)-2-azaspiro[3.3]heptan-2-yl)((1s,3s)-3-hydroxy-3-methylcyclobutyl)methanone] gave a half-inhibitory concentration (IC50) of 273 nM.

As for `COC1(c2ccccc2C)CCC2(CC1)CN(C(=O)[C@H]1C[C@@](C)(O)C1)C2` [Example 343, ((1s,3s)-3-Hydroxy-3-methylcyclobutyl)(7-methoxy-7-(o-tolyl)-2-azaspiro[3.5]nonan-2-yl)methanone], half-maximal inhibition (IC50) required 16 nM.

Take `C[C@]1(O)C[C@@H](C(=O)N2CC3(CCC(c4ccc(C5CC5)cc4)C3)C2)C1` (mixture of isomers) [Example 49, (rac)-(6-(4-Cyclopropylphenyl)-2-azaspiro[3.4]octan-2-yl)((1s,3s)-3-hydroxy-3-methylcyclobutyl)methanone]: the IC50 came out at 14 nM.

As to `Cn1cc(C(F)(F)F)c2ccc(CC3CC4(C3)CN(C(=O)[C@H]3C[C@@](C)(O)C3)C4)nc21` [Example 296, ((1s,3s)-3-Hydroxy-3-methylcyclobutyl)(6-((1-methyl-3-(trifluoromethyl)-1H-pyrrolo[2,3-b]pyridin-6-yl)methyl)-2-azaspiro[3.3]heptan-2-yl)methanone], the IC50 amounted to 0.29 nM.

For the molecule `C[C@]1(O)C[C@@H](C(=O)N2CC3(CCC(Cc4ccc(OC(F)F)cc4)CC3)C2)C1` [Example 161, (7-(4-(Difluoromethoxy)benzyl)-2-azaspiro[3.5]nonan-2-yl)((1s,3s)-3-hydroxy-3-methylcyclobutyl)methanone], half-maximal inhibition (IC50) required 19 nM.

On to `Cc1cc(C2CCC3(C2)CN(C(=O)[C@H]2C[C@@](C)(O)C2)C3)ccc1OC(F)F` (mixture of isomers) [Example 72, (rac)-(6-(4-(Difluoromethoxy)-3-methylphenyl)-2-azaspiro[3.4]octan-2-yl)((1s,3s)-3-hydroxy-3-methylcyclobutyl)methanone], for which 4.6 nM corresponded to half-maximal inhibition (IC50).

As for `Cc1cc(CC2CC3(C2)CN(C(=O)[C@H]2C[C@@](C)(O)C2)C3)ccc1F` [Example 228, (6-(4-Fluoro-3-methylbenzyl)-2-azaspiro[3.3]heptan-2-yl)((1s,3s)-3-hydroxy-3-methylcyclobutyl)methanone], the IC50 was found to be 15 nM.

`CC1(Oc2ccc(C(F)(F)F)cn2)CCC2(CC1)CN(C(=O)[C@H]1C[C@@](C)(O)C1)C2` [Example 419, ((1s,3s)-3-Hydroxy-3-methylcyclobutyl)(7-methyl-7-((5-(trifluoromethyl)pyridin-2-yl)oxy)-2-azaspiro[3.5]nonan-2-yl)methanone] gave a 50% inhibitory concentration (IC50) of 12 nM.

(Values after US11802111B2, “Cyclobutyl amide monoacylglycerol lipase modulators” (Janssen Pharmaceutica NV, priority 2020, dated 2023).)
